Here are results for eight molecules from ChEMBL document CHEMBL3137667, “[Drug-induced liver injury; fourteenth updated edition of the bibliographic database of liver injuries and related drugs]” (Gastroenterol Clin Biol, 2004).

Data set [1] in a line: Highest frequency of moderate liver toxicity observed during clinical trials, expressed as a percentage. [column '% BIOL' in source]. The conditions noted are these: human.
A short description of data set [2]: Highest frequency of acute liver toxicity observed during clinical trials, expressed as a percentage. [column '% AIGUE' in source]. The conditions noted are these: human.
The nature of data set [3]: Times to onset, minimal and maximal, observed in the indexed observations. [column 'DELAI' in source]. The conditions noted are these: human.
For data set [4] the following is noted: human, serum.
The conditions of data set [5]: human, serum. This is another data set of the same source.
For data set [6] the following is noted: human.
For data set [7] the following is noted: human. The source holds these as a separate data set.
For data set [8] the following is noted: human. This is another data set of the same source.
For data set [9] the following is noted: human, serum, 4383 h.
For data set [10] the following is noted: human. The source holds these as a separate data set.
The conditions of data set [11]: human. This is another data set of the same source.
For data set [12] the following is noted: human. The source holds these as a separate data set.
The conditions of data set [13]: human. This is another data set of the same source.
For data set [14] the following is noted: human. The source holds these as a separate data set.
For data set [15] the following is noted: human. This is another data set of the same source.
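For Hepatotoxicity (association with vascular disease) in this document: count of indexed literature references reporting vascular liver injury in humans, e.g. peliosis hepatitis, hepatic veno-occlusive disease or Budd-Chiari syndrome.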
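For Hepatotoxicity (benign tumour) in this document: value is a count of indexed literature references citing a benign tumour confirmed by histopathology.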
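For Hepatotoxicity (choleostasis) in this document: human cholestatic liver injury, shown by histopathology or by peak ALT or AST elevation over alkaline phosphatase ratio below 2, value counts indexed literature reports.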
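For Hepatotoxicity (chronic liver disease) in this document: chronic liver injury confirmed by histopathology or persistently raised serum aminotransferase activity beyond 6 months, value given as the count of indexed literature references.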
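For Hepatotoxicity (cirrhosis) in this document: value is a count of indexed literature references reporting cirrhosis confirmed by histopathology.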
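For Hepatotoxicity (cytolytic) in this document: human cytolytic liver injury, shown by histopathology or by a ratio above 5 of peak ALT or AST elevation to alkaline phosphatase elevation, value counts indexed references.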
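For Hepatotoxicity (granulomatous hepatitis) in this document: value is a count of indexed literature references reporting granulomatous liver disease confirmed by histopathology.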
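For Hepatotoxicity (malignant tumour) in this document: malignant tumour confirmed by histopathology, value gives the count of indexed literature references reporting it.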
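For Hepatotoxicity (severe hepatitis) in this document: human clinical data: severe hepatitis, meaning potentially life-threatening liver failure or clinically observed cases, the value counts how many indexed literature references report it.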
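For Hepatotoxicity (steatosis) in this document: steatosis confirmed by histopathology, value is the count of indexed references.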

For `CCCCNc1cc(C(=O)O)cc(S(N)(=O)=O)c1Oc1ccccc1` [BUMETANIDE], the “Hepatotoxicity (moderate)” value came out at 1.1% in data set [1] (Liver) and 3 in data set [4]. For the same molecule, the entries for the “Hepatotoxicity (acute)” value in [2] (Liver) and in [5] were 0% and 0, respectively. The “Hepatotoxicity (time to onset)” value in data set [3] is given as 2 weeks - 6 months. For the same molecule, the “Hepatotoxicity (cytolytic)” value in [6] worked out at 0. In [7], the “Hepatotoxicity (choleostasis)” value came to 0. Moreover, in [8] (Liver), the “Hepatotoxicity (severe hepatitis)” value was 0. In addition, in data set [9], the “Hepatotoxicity (chronic liver disease)” value was 0. Besides, the “Hepatotoxicity (cirrhosis)” value in [10] was 0. Further, the “Hepatotoxicity (granulomatous hepatitis)” value in [11] turned out to be 0. In addition, the “Hepatotoxicity (association with vascular disease)” value in data set [12] amounted to 0. In addition, in data set [13], the “Hepatotoxicity (steatosis)” value is 0. Also, the “Hepatotoxicity (malignant tumour)” value in data set [14] is 0. For the same molecule, the “Hepatotoxicity (benign tumour)” value in data set [15] is listed as 0.
For the molecule `CCOC(=O)c1cncn1[C@H](C)c1ccccc1` [ETOMIDATE], the “Hepatotoxicity (moderate)” value in data set [1] (Liver) came to 5%; in data set [4], 1. Moreover, the results for the “Hepatotoxicity (acute)” value in data set [2] (Liver) and in [5] were 0% and 0, respectively. The “Hepatotoxicity (time to onset)” value in [3] is listed as 3 days - 5 days. Further, the “Hepatotoxicity (cytolytic)” value in [6] turned out to be 0. The “Hepatotoxicity (choleostasis)” value in data set [7] is reported as 0. In data set [8] (Liver), the “Hepatotoxicity (severe hepatitis)” value was found to be 0. The “Hepatotoxicity (chronic liver disease)” value in data set [9] stood at 0. Besides, the “Hepatotoxicity (cirrhosis)” value in data set [10] worked out at 0. In addition, the “Hepatotoxicity (granulomatous hepatitis)” value in [11] was 0. The “Hepatotoxicity (association with vascular disease)” value in [12] was 0. In [13], the “Hepatotoxicity (steatosis)” value came to 0. Further, in data set [14], the “Hepatotoxicity (malignant tumour)” value worked out at 0. In data set [15], the “Hepatotoxicity (benign tumour)” value is 0.
Turning to `CC#C[C@]1(O)CC[C@H]2[C@@H]3CCC4=CC(=O)CCC4=C3[C@@H](c3ccc(N(C)C)cc3)C[C@@]21C` [MIFEPRISTONE], the “Hepatotoxicity (moderate)” value in data set [1] is 14.3%; in data set [4], 2. The “Hepatotoxicity (acute)” value came out at 0% in [2] and 1 in [5]. Moreover, the “Hepatotoxicity (time to onset)” value in data set [3] came to 3 months - 5 months. Moreover, the “Hepatotoxicity (cytolytic)” value in data set [6] is given as 1. In addition, in data set [7], the “Hepatotoxicity (choleostasis)” value came to 0. Besides, the “Hepatotoxicity (severe hepatitis)” value in [8] is listed as 0. Also, the “Hepatotoxicity (chronic liver disease)” value in data set [9] is recorded as 0. Also, the “Hepatotoxicity (cirrhosis)” value in [10] is reported as 0. In addition, the “Hepatotoxicity (granulomatous hepatitis)” value in data set [11] turned out to be 0. For the same molecule, in data set [12], the “Hepatotoxicity (association with vascular disease)” value is recorded as 0. Moreover, the “Hepatotoxicity (steatosis)” value in data set [13] turned out to be 0. For the same molecule, the “Hepatotoxicity (malignant tumour)” value in data set [14] worked out at 0. Moreover, in [15], the “Hepatotoxicity (benign tumour)” value was 0.
With `CCC(Cc1c(I)cc(I)c(N)c1I)C(=O)O` (stereo not given) [IOPANOIC ACID], the “Hepatotoxicity (moderate)” value in [1] is listed as 0%; in data set [4] it was 0. In addition, the “Hepatotoxicity (acute)” value in [2] was determined as 0%; in data set [5] it was 1. The “Hepatotoxicity (time to onset)” value in [3] is 1 week. The “Hepatotoxicity (cytolytic)” value in data set [6] was 1. Also, the “Hepatotoxicity (choleostasis)” value in data set [7] was found to be 0. In [8], the “Hepatotoxicity (severe hepatitis)” value is given as 0. In addition, the “Hepatotoxicity (chronic liver disease)” value in [9] came out at 0. The “Hepatotoxicity (cirrhosis)” value in data set [10] is recorded as 0. In addition, the “Hepatotoxicity (granulomatous hepatitis)” value in data set [11] was 0. Further, the “Hepatotoxicity (association with vascular disease)” value in data set [12] was 0. The “Hepatotoxicity (steatosis)” value in data set [13] is given as 0. Further, in [14], the “Hepatotoxicity (malignant tumour)” value came out at 0. For the same molecule, in [15], the “Hepatotoxicity (benign tumour)” value was 0.
Regarding `CN1CCN(C(=O)OC2c3nccnc3C(=O)N2c2ccc(Cl)cn2)CC1` (stereo not given) [ZOPICLONE], the “Hepatotoxicity (moderate)” value is reported as 0% in data set [1] and 0 in data set [4]. Also, the “Hepatotoxicity (acute)” value was 0% in data set [2] and 1 in [5]. Besides, the “Hepatotoxicity (time to onset)” value in [3] came to 6 months. The “Hepatotoxicity (cytolytic)” value in data set [6] was 1. For the same molecule, the “Hepatotoxicity (choleostasis)” value in data set [7] was found to be 1. Further, the “Hepatotoxicity (severe hepatitis)” value in [8] was found to be 0. Besides, the “Hepatotoxicity (chronic liver disease)” value in data set [9] stood at 0. In [10], the “Hepatotoxicity (cirrhosis)” value was 0. Moreover, the “Hepatotoxicity (granulomatous hepatitis)” value in data set [11] was found to be 0. Also, in data set [12], the “Hepatotoxicity (association with vascular disease)” value was 0. In addition, the “Hepatotoxicity (steatosis)” value in data set [13] was determined as 0. Besides, the “Hepatotoxicity (malignant tumour)” value in data set [14] is 0. Besides, the “Hepatotoxicity (benign tumour)” value in [15] amounted to 0.
On to `CCN(CC)CCNC(=O)c1cc(Cl)c(N)cc1OC` [METOCLOPRAMIDE], for which the figures for the “Hepatotoxicity (moderate)” value in data set [1] and in data set [4] were 6% and 2, respectively. The “Hepatotoxicity (acute)” value in data set [2] is given as 0%; in data set [5], 1. The “Hepatotoxicity (time to onset)” value in [3] is listed as 2 days - 4 months. In addition, in data set [6], the “Hepatotoxicity (cytolytic)” value is 1. In data set [7], the “Hepatotoxicity (choleostasis)” value amounted to 0. In [8], the “Hepatotoxicity (severe hepatitis)” value was determined as 0. Further, the “Hepatotoxicity (chronic liver disease)” value in data set [9] amounted to 0. In addition, the “Hepatotoxicity (cirrhosis)” value in data set [10] amounted to 0. Also, in [11], the “Hepatotoxicity (granulomatous hepatitis)” value is given as 0. Moreover, the “Hepatotoxicity (association with vascular disease)” value in data set [12] is reported as 1. For the same molecule, the “Hepatotoxicity (steatosis)” value in [13] amounted to 0. Further, the “Hepatotoxicity (malignant tumour)” value in data set [14] amounted to 0. Also, the “Hepatotoxicity (benign tumour)” value in data set [15] was determined as 0.
Turning to `CCOC(=O)C(C)(CC)Oc1ccc(Cc2ccc(Cl)cc2)cc1` (stereo not given) [BECLOBRATE], the “Hepatotoxicity (moderate)” value amounted to 1% in data set [1] and 1 in [4]. The “Hepatotoxicity (acute)” value in [2] worked out at 0%; in [5] it was 2. The “Hepatotoxicity (time to onset)” value in [3] is listed as 4 months - 6.5 months. Also, the “Hepatotoxicity (cytolytic)” value in data set [6] stood at 1. The “Hepatotoxicity (choleostasis)” value in data set [7] is on record as 0. Moreover, the “Hepatotoxicity (severe hepatitis)” value in data set [8] came to 2. Further, the “Hepatotoxicity (chronic liver disease)” value in data set [9] is 0. In addition, the “Hepatotoxicity (cirrhosis)” value in data set [10] came to 0. In addition, the “Hepatotoxicity (granulomatous hepatitis)” value in [11] is reported as 0. Also, the “Hepatotoxicity (association with vascular disease)” value in data set [12] is on record as 0. Moreover, the “Hepatotoxicity (steatosis)” value in [13] stood at 0. For the same molecule, the “Hepatotoxicity (malignant tumour)” value in data set [14] was 0. For the same molecule, the “Hepatotoxicity (benign tumour)” value in data set [15] was 0.
With `Clc1ccc2c(c1)C(N1CCNCC1)=Nc1ccccc1O2` [AMOXAPINE], the “Hepatotoxicity (moderate)” value was 0% in [1] and 2 in data set [4]. Also, the “Hepatotoxicity (acute)” value is on record as 0% in [2] and 2 in data set [5]. The “Hepatotoxicity (time to onset)” value in data set [3] stood at 4 days - 18 days. Besides, in data set [6], the “Hepatotoxicity (cytolytic)” value was found to be 2. In addition, in data set [7], the “Hepatotoxicity (choleostasis)” value stood at 0. Also, the “Hepatotoxicity (severe hepatitis)” value in data set [8] was 0. For the same molecule, the “Hepatotoxicity (chronic liver disease)” value in data set [9] is 0. In addition, the “Hepatotoxicity (cirrhosis)” value in data set [10] is given as 0. Moreover, the “Hepatotoxicity (granulomatous hepatitis)” value in data set [11] was 0. In data set [12], the “Hepatotoxicity (association with vascular disease)” value is listed as 0. Further, in data set [13], the “Hepatotoxicity (steatosis)” value came out at 0. Besides, the “Hepatotoxicity (malignant tumour)” value in data set [14] was 0. In addition, the “Hepatotoxicity (benign tumour)” value in data set [15] is 0.
